Where two headings read alike, the source gives them in different places.
Legend:
[1] = in vitro; details: African green monkey, CC50 Vero76
[2] = system: ZIKV-RLuc NS4B A245T; assay type: cell-based, Zika virus
[3] = system: ZIKV-RLuc NS4B V248G; assay type: cell-based, Zika virus
[4] = system: ZIKV PLCal; test: Virus yield (titer) reduction assay in Huh 7.5.1 cells; assay type: cell-based, Zika virus; details: 1 µM
[5] = system: ZIKV-RLuc NS4B V241L; assay type: cell-based, Zika virus
[6] = system: ZIKV PLCal; test: CPE-based anti-ZIKV concentration-response assay (96-well); assay type: cell-based, Zika virus
[7] = system: ZIKV-RLuc; test: microbe, parasite or virus in culture; assay type: cell-based, Zika virus
[8] = biological target: T1, DENV NS4B (Dengue virus type 3, UniProt P27915); test: 19F-NMR binding, DENV NS4B; details: compound 50 µM, NS4B 5 µM
T1 construct: Overlaid ^19F-NMR spectra of JNJ-1802 in absence (blue) and presence of DENV NS4B (red)
T1 sequence (P27915 2243-2490): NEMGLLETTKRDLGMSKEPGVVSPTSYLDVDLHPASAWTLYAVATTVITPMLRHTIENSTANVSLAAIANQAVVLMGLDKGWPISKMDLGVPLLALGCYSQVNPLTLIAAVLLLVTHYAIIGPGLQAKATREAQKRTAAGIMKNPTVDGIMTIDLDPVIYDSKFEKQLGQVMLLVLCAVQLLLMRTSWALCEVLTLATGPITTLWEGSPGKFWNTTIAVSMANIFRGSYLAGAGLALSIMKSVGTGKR

[9] = system: WNV NY-99; test: CPE-protection assay, WNV; assay type: cell-based, West Nile virus
[10] = system: ZIKV PLCal; test: CPE-based phenotypic HTS assay (1536-well); assay type: cell-based, Zika virus; details: n = 10, uridine supplemented
Procedure: To begin, 600 cells at 2.5 μL/ well of Vero 76 cells in MEM-E supplemented with 10% FBS and 1X Antibiotic-Antimycotic (Gibco 15240-062) were dispensed to 1536 well plate (Aurora EBB0-40000A) and incubated at 37 °C in humidified incubators with 5% CO2 for 24 hours. After that, 30 nL of each compound or vehicle (75% DMSO) were transferred using pintool and further incubated for 2 hours. […] For the negative control wells (N = 24/plate), only virus dilution media was dispensed. Positive control wells contained virus and cells (N = 24/plate). After incubation at 37 °C in humidified incubators with 5% CO2 for 72 hours, plates were incubated for 10 minutes at room temperature, followed by dispensing 5 μL/well CellTiter Glo (Promega). Luminescent signal was detected using PHERAstar FSX (BMG Labtech).
In the primary screen, compounds were tested at a single concentration in singlicate at a final nominal concentration of 6.95 μM. Raw assay data was imported into UF Scripps’ corporate database and subsequently analyzed using Symyx software. Activity of each compound was calculated on a per-plate basis using the following equation: Percent Response of compound = 100*((Test Well-Median Data Wells)/ (Median High Control - Median Data Wells)). […]

[11] = system: ZIKV FLR; test: microbe, parasite or virus in culture; assay type: cell-based; details: CPE-protection
[12] = system: ZIKV DAK-41525-MA; test: CPE-protection assay, ZIKV DAK-41525-MA; assay type: cell-based, Zika virus
[13] = system: ZIKV PRVABC59; test: microbe, parasite or virus in culture; assay type: cell-based; details: CPE-protection
[14] = system: ZIKV MR766; test: microbe, parasite or virus in culture; assay type: cell-based; details: CPE-protection
[15] = system: ZIKV Ib H30656; test: microbe, parasite or virus in culture; assay type: cell-based; details: CPE-protection
[16] = system: Vero76
[17] = system: YFV 17D; test: microbe, parasite or virus in culture; assay type: cell-based; details: CPE-protection
[18] = system: DENV Type 4 H241; test: microbe, parasite or virus in culture; assay type: cell-based; details: CPE-protection; read-out: EC50 DENV Type 4 H241
[19] = system: CHIKV; test: microbe, parasite or virus in culture; assay type: cell-based; details: Vero 76; read-out: EC50-CPE CHIKV
[20] = system: JEV SA-14; test: CPE-protection assay, JEV; assay type: cell-based, Japanese encephalitis virus
[21] = Zika virus, Fig 7, read-out: CPE EC50
[22] = Zika virus, Vero 76, 72 h, wild type ZIKV-RLuc, Vero 76, MOI 0.1, three days, read-out: EC50 ZIKV-RLuc
[23] = Zika virus, Fig 7, read-out: RLuc EC50
[24] = Vero 76, MOI 0.05, 3-day incubation, CellTiter-Glo, read-out: EC50-CPE ZIKV-PLCal
[25] = wild type ZIKV-RLuc, Vero 76, MOI 0.1, three days, read-out: EC50 ZIKV-RLuc

Row | SMILES | CC50 [1] | EC50 [2] | EC50 [3] | VYR: Virus Yield reduction (Log 10) [4] | EC50 [5] | EC50 [6, 21] | EC50 [7, 22] | EC50 [7, 23] | CC50 [16] | EC50 [6, 24] | EC50 [7, 25] | also measured
1 | CC(C)(C)c1ccc(C(=O)NC2CC3CCC2C3)cc1 (stereo not shown) [MWAC-3508] | > 50 µM | 0.81 ± 0.11 µM | 4.37 ± 0.37 µM | -0.93 ± 0.07 Log 10 | 13.2 ± 1.87 µM | 0.36 µM | 0.11 ± 0.002 µM | 0.15 µM |  |  |  | 
2 | COc1cc(N[C@H](C(=O)c2c[nH]c3ccc(OC(F)(F)F)cc23)c2ccc(Cl)cc2OC)cc(S(C)(=O)=O)c1 [JNJ-1802] |  |  |  |  |  |  |  |  |  |  |  | 19F-NMR spectrum change with DENV NS4B [8]: a chemical shift perturbation and significant line broadening was seen
3 | CC(C)(C)c1ccc(C(=O)N[C@H]2C[C@H]3CC[C@@H]2C3)cc1 (relative stereo) [MWAC-3992, N-((endo)-bicyclo[2.2.1]heptan-2-yl)-4-(tert-butyl)benzamide] | 63 µM | 2.77 ± 0.31 µM | 16.8 ± 2.54 µM | -1.20 ± 0.09 Log 10 | 27.5 µM | 0.94 µM | 0.34 ± 0.018 µM | 0.58 µM |  |  |  | 
4 | C#C[C@@]1(O)[C@H](O)[C@@H](CO)O[C@H]1n1ccc2c(N)ncnc21 [NITD-008, reference compound] |  |  |  |  |  |  |  |  | 19 ± 10.3 µM | 0.36 ± 0.27 µM | 0.31 ± 0.13 µM | EC50 [9]: 3 ± 2.5 µM; EC50 [10]: 0.8 ± 0.037 µM; EC50 [11]: 1.24 ± 0.09 µM; EC50 [12]: 0.89 ± 0.22 µM; EC50 ([2]; ZIKV RLuc assay): 0.28 µM; Fold-increase / fold-change of EC50, NS4B A245T vs wild type ([2]; ZIKV RLuc assay): 1.29; EC50 ([3]; ZIKV RLuc assay): 0.2 µM; Fold-increase / fold-change of EC50, NS4B V248G vs wild type ([3]; ZIKV RLuc assay): 0.93; EC50 [13]: 0.69 ± 0.11 µM; EC50 [14]: 1.76 ± 0.2 µM; EC50 [15]: 1.43 ± 0.23 µM; EC50 ([5]; ZIKV RLuc assay): 0.76 µM; Fold-increase / fold-change of EC50, NS4B V241L vs wild type ([5]; ZIKV RLuc assay): 3.44; EC50 [17]: 0.27 ± 0.12 µM; EC50 [18]: 0.18 ± 0.12 µM; EC50 [19]: > 50 µM; EC50 [20]: 1.85 ± 1.1 µM
5 | COC(C)(C)c1ccc(C(=O)NC2CC3CCC2C3)cc1 (stereo not drawn) [MWAC-3998, N-((exo)-bicyclo[2.2.1]heptan-2-yl)-4-(2-methoxypropan-2-yl)benzamide] |  |  |  |  |  |  |  |  | > 50 µM | 2.72 ± 1.24 µM | 0.76 ± 0.05 µM | 
6 | CCc1ccc(C(=O)NC2CC3CCC2C3)cc1 (stereo not drawn) [MWAC-3996, N-((exo)-bicyclo[2.2.1]heptan-2-yl)-4-ethylbenzamide] |  |  |  |  |  |  |  |  | > 50 µM | 27.1 ± 16.8 µM | 4.88 ± 1.36 µM | 
7 | O=C(NC1CC2CCC1C2)c1ccc(C(F)(F)F)cc1 (stereo not drawn) [MWAC-3997, N-((exo)-bicyclo[2.2.1]heptan-2-yl)-4-(trifluoromethyl)benzamide] |  |  |  |  |  |  |  |  | > 50 µM | 39 ± 15.3 µM | 4.06 ± 1.17 µM | 
8 | Cc1ccc(C(=O)NC2CC3CCC2C3)cc1 (stereo not drawn) [MWAC-4010, N-((exo)-bicyclo[2.2.1]heptan-2-yl)-4-methylbenzamide] |  |  |  |  |  |  |  |  | > 50 µM |  |  | 
9 | CC(C)(C)c1ccc(C(=O)NC2CCCCC2)cc1 [MWAC-4000, 4-(tert-butyl)-N-cyclohexylbenzamide] | > 50 µM | 0.68 ± 0.09 µM | 6.6 ± 0.53 µM | -1.67 ± 0.10 Log 10 | 21.3 ± 4.87 µM | 0.21 µM | 0.03 ± 0.003 µM | 0.09 µM |  |  |  | Fold-increase / fold-change of EC50, NS4B A245T vs wild type [2]: 21.2; Fold-increase / fold-change of EC50, NS4B V248G vs wild type [3]: 204.7; Fold-increase / fold-change of EC50, NS4B V241L vs wild type [5]: 659.3; Fold-change of EC50, Wt ([7]; ZIKV RLuc assay, reference): 1
10 | COc1ccc(C(C)NC(=O)c2ccc(C(C)(C)C)cc2)cc1 (racemic) [MWAC-3489] |  |  |  |  |  |  |  |  |  |  | 1.22 ± 0.86 µM | EC50 [19]: > 50 µM

— article PMC13065080, “Discovery of a potent anti-Zika virus benzamide series targeting the viral protein NS4B” (PLOS Pathogens, 2026)
